Patent EP0705816B1, “BENZENE DERIVATIVE USEFUL FOR ISCHEMIC DISEASES” (Chugai Seiyaku Kabushiki Kaisha, priority 1993, dated 1995)
Read-outs that look alike come from different tables or passages of the source.

What was measured:
ventricular myocytes [1] = assay: Inhibitory action on calcium overload in vitro, Method B: veratridine-treated myocytes; assay type: cell-based, male Sprague-Dawley rat; conditions: 50 µg/ml of veratridine, read-out: Concentration at Which Cells Survived Almost Completely
Method: (§1) Incubated ventricular myocytes were prepared from the heart of male Sprague-Dawley rat weighing 300 to 500 g, using an enzyme-perfusion method. […]
The efficacy was evaluated in the same manner as in Method A, except for using 50 µg/ml of veratridine in place of veratrine (100 µg/ml).

rabbit LDL [2] = assay: Inhibitory action on lipid peroxidation in vitro, Method A: oxidation of LDL by soybean lipoxygenase, fluorescence of the LDL fraction; assay type: biochemical; conditions: fluorescence intensity of LDL fraction, SLO 40 µg/ml, 37°C, 24 hours
Method: A test compound was added to rabbit LDL prepared according to the method of Havel, et al. (Havel RJ et al., J. Clin. Invest., 34, 1345 (1955)), and then a soybean lipoxygenase type-IS (SLO) was added to a final concentration of 40 µg/ml. Oxydation of LDL was carried out by incubating at 37°C in a CO2 incubator for 24 hours. The oxidized LDL solution was analyzed by gel-permeation chromatography, and the fluorescence intensity of the LDL fraction was measured at an excitation wavelength of 360 nm and an emission wavelength of 430 nm.

rabbit LDL [3] = assay: Inhibitory action on lipid peroxidation in vitro, Method B: CuSO4 oxidation of LDL, TBARS by fluorometry; assay type: biochemical; conditions: 1 x 10^-5 M, CuSO4 1 µM, 37°C, 24 hours, 10 µM
Method: A test compound was added to rabbit LDL prepared according to the method of Havel, et al. (Havel RJ, et al., J. Clin. Invest., 34, 1345 (1955)), and then CuSO4 was added to a final concentration of 1 µM. Oxidation of LDL was performed by shaking at 37°C for 24 hours. The generated TBARS was measured by the method of Yagi utilizing fluorometry (Yagi, K., Biochem. Med., 15, 212 (1976)).

ventricular myocytes [4] = assay: Inhibitory action on calcium overload in vitro, Method A: veratrine-treated myocytes; assay type: cell-based, male Sprague-Dawley rat; parameters: key: ++: The cells survived almost completely at 10^-7 M.; The cells died almost completely at 10 M^-8 M; conditions: compound 30 minutes, then 100 µg/ml of veratrine; shape of cells observed five minutes later
Method: as §1

[5] = Rattus norvegicus, Ventricular myocyte

Structure (SMILES)	Percent (%) of Control (rabbit LDL [2]; 5 x 10^-7 M, 0.5 µM)	% of Control (rabbit LDL [3])	Survival Rate of Cells (ventricular myocytes [4])	Percent (%) of Control (rabbit LDL [2]; 5 x 10^-6 M)	further results
C[C@H]1S[C@H](c2cc(C(C)(C)C)c(O)c(C(C)(C)C)c2)N(CCCN(C)CCOc2ccc3c(c2)OCO3)C1=O (relative stereo) [Compound (72), 2,5-Trans-2-(3,5-di-tert-butyl-4-hydroxyphenyl)-3-[3-[N-methyl-[2-(3,4-methylenedioxyphenoxy)ethyl]amino]propyl]-5-methyl-1,3-thiazolidin-4-one]					minimal effective concentration (ventricular myocytes [1]; [5]): 0.32 µM
CN(CCCN1C(=O)CSC1c1cc(C(C)(C)C)c(O)c(C(C)(C)C)c1)CCOc1ccc2c(c1)OCO2 (single isomer, unassigned; (+)) [Compound (70), (+)-2-(3,5-Di-tert-butyl-4-hydroxyphenyl)-3-[3-[N-methyl-N-[2-(3,4-methylenedioxyphenoxy)ethyl]amino]propyl]-1,3-thiazolidin-4-one]	15.2%	21.1%			Percent (%) of Control (rabbit LDL [2]; 5 x 10^-6 M, 5 µM): 5.1%
CC1SC(c2cc(C(C)(C)C)c(O)c(C(C)(C)C)c2)N(CCCN(C)CCOc2ccc3c(c2)OCO3)C1=O (single isomer, unassigned; (+)) [Compound (74), (+)-2,5-Cis-2-(3,5-di-tert-butyl-4-hydroxyphenyl)-3-[3-[N-methyl-N-[2-(3,4-methylenedioxyphenoxy)ethyl]amino]propyl]-5-methyl-1,3-thiazolidin-4-one]					minimal effective concentration (ventricular myocytes [1]; [5]): 0.32 µM
CN(CCCN1C(=O)CSC1c1cc(C(C)(C)C)c(O)c(C(C)(C)C)c1)CCOc1ccc2c(c1)OCO2 (single isomer, unassigned; (-)) [Compound (71), (-)-2-(3,5-Di-tert-butyl-4-hydroxyphenyl)-3-[3-[N-methyl-N-[2-(3,4-methylenedioxyphenoxy)ethyl]amino]propyl]-1,3-thiazolidin-4-one]	12.7%	23.8%			Percent (%) of Control (rabbit LDL [2]; 5 x 10^-6 M, 5 µM): 2.8%
CC1SC(c2cc(C(C)(C)C)c(O)c(C(C)(C)C)c2)N(CCCN(C)CCOc2ccc3c(c2)OCO3)C1=O (single isomer, unassigned; (-)) [Compound (75), (-)-2,5-Cis-2-(3,5-di-tert-butyl-4-hydroxyphenyl)-3-[3-[N-methyl-N-[2-(3,4-methylenedioxyphenoxy)ethyl]amino]propyl]-5-methyl-1,3-thiazolidin-4-one]					minimal effective concentration (ventricular myocytes [1]): 0.32 µM
CN(CCCCN1C(=O)CSC1c1cc(C(C)(C)C)c(O)c(C(C)(C)C)c1)CCOc1ccc2c(c1)OCO2 (centres unmarked) [Compound (8)]			++		
CN(CCCCCN1C(=O)CSC1c1cc(C(C)(C)C)c(O)c(C(C)(C)C)c1)CCOc1ccc2c(c1)OCO2 (centres unmarked) [Compound (9)]	13.5%	26.4%	++	5.9%	
CCN(CCCN1C(=O)CSC1c1cc(C(C)(C)C)c(O)c(C(C)(C)C)c1)CCOc1ccc2c(c1)OCO2 (centres unmarked) [Compound (12)]	16.8%	25.9%	++	6.4%	
CN(CCCOc1ccc2c(c1)OCO2)CCCN1C(=O)CSC1c1cc(C(C)(C)C)c(O)c(C(C)(C)C)c1 (centres unmarked) [Compound (17)]	16.4%	21.0%		3.9%	minimal effective concentration (ventricular myocytes [1]; [5]): 0.32 µM
COc1ccc(CCN(C)CCCN2C(=O)CSC2c2cc(C(C)(C)C)c(O)c(C(C)(C)C)c2)cc1OC (centres unmarked) [Compound (20)]	8.7%	21.3%	+	0.6%	
CN(CCCN1C(=O)CSC1c1cc(C(C)(C)C)c(O)c(C(C)(C)C)c1)CCOc1ccc2c(c1)OCO2 (centres unmarked) [Compound (26), 2-(3,5-Di-tert-butyl-4-hydroxyphenyl)-3-[3-[N-methyl-N-[2-(3,4-methylenedioxyphenoxy)ethyl]amino]propyl]-1,3-thiazolidin-4-one]			++		
CC(C)(C)c1cc(C2SCC(=O)N2CCCN2CCC(Oc3ccc4c(c3)OCO4)CC2)cc(C(C)(C)C)c1O (centres unmarked) [Compound (34)]		20.5%			minimal effective concentration (ventricular myocytes [1]; [5]): 0.32 µM
CC1SC(c2cc(C(C)(C)C)c(O)c(C(C)(C)C)c2)N(CCCN(C)CCOc2ccc3c(c2)OCO3)C1=O (centres unmarked) [Compound (41), 2-(3,5-Di-tert-butyl-4-hydroxyphenyl)-3-[3-[N-methyl-N-[2-(3,4-methylenedioxyphenoxy)ethyl]amino]propyl]-5-methyl-1,3-thiazolidin-4-one]	18.3%	26.3%		6.2%	
CCOC(=O)CC1SC(c2cc(C(C)(C)C)c(O)c(C(C)(C)C)c2)N(CCCN(C)CCOc2ccc3c(c2)OCO3)C1=O (centres unmarked) [Compound (46), 2-(3,5-Di-tert-butyl-4-hydroxyphenyl)-3-[3-[N-methyl-N-[2-(3,4-methylenedioxyphenoxy)ethyl]amino]propyl]-5-ethoxycarbonylmethyl-1,3-thiazolidin-4-one]		20.4%			
CN(CCCN1C(=O)C(CCO)SC1c1cc(C(C)(C)C)c(O)c(C(C)(C)C)c1)CCOc1ccc2c(c1)OCO2 (centres unmarked) [Compound (49), 2-(3,5-Di-tert-butyl-4-hydroxyphenyl)-3-[3-[N-methyl-N-[2-(3,4-methylenedioxyphenoxy)ethyl]amino]propyl]-5-(2-hydroxyethyl)-1,3-thiazolidin-4-one]		15.7%			
CN(CCCN1C(=O)C(CC(=O)N(C)C)SC1c1cc(C(C)(C)C)c(O)c(C(C)(C)C)c1)CCOc1ccc2c(c1)OCO2 (centres unmarked) [Compound (51)]		16.6%			
CN(CCCN1C(=O)C(OCCO)SC1c1cc(C(C)(C)C)c(O)c(C(C)(C)C)c1)CCOc1ccc2c(c1)OCO2 (centres unmarked) [Compound (55)]		20.0%			
CN(CCCN1C(=S)CSC1c1cc(C(C)(C)C)c(O)c(C(C)(C)C)c1)CCOc1ccc2c(c1)OCO2 (centres unmarked) [Compound (57), 2-(3,5-Di-tert-butyl-4-hydroxyphenyl)-3-[3-[N-methyl-N-[2-(3,4-methylenedioxyphenoxy)ethyl]amino]propyl]-1,3-thiazolidin-4-thione]	22.8%	23.0%		11.3%	
COc1ccc([C@@H]2Sc3ccccc3N(CCN(C)C)C(=O)[C@@H]2OC(C)=O)cc1 [Diltiazem, reference compound]	109.1%	96.9%	-	110.7%	minimal effective concentration (ventricular myocytes [1]; Rattus norvegicus, Ventricular myocyte, symbol defined by footnote): > 1 µM
